Test results published in PubChem BioAssay (NCI).
“And” between values parts separate entries of the source, which are not always exact repeats. Equal entries are not always repeated.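 A five-concentration, 48-hour dose response in 96-well plates underlies each endpoint, interpolated linearly between surrounding concentrations. GI50: concentration for 50% inhibition of growth. TGI: concentration producing complete growth inhibition.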

Experiments:
Assay in all cases: inhibition of tumour cell growth, NCI panel, 48 h
DU-145 prostate = test system: DU-145 prostate
HCC-2998 colon = test system: HCC-2998 colon
HL-60(TB) leukemia = test system: HL-60(TB) leukemia
HT29 colon = test system: HT29 colon
NCI-H522 lung = test system: NCI-H522 lung
RXF 393 renal = test system: RXF 393 renal
SK-MEL-28 melanoma = test system: SK-MEL-28 melanoma
SW-620 colon = test system: SW-620 colon
T-47D breast = test system: T-47D breast
UO-31 renal = test system: UO-31 renal

| Structure (SMILES) | GI50 (DU-145 prostate) | TGI (DU-145 prostate) | GI50 (HCC-2998 colon) | TGI (HCC-2998 colon) | GI50 (HL-60(TB) leukemia) | TGI (HL-60(TB) leukemia) | GI50 (HT29 colon) | TGI (HT29 colon) | GI50 (NCI-H522 lung) | TGI (NCI-H522 lung) | GI50 (RXF 393 renal) | TGI (RXF 393 renal) | GI50 (SK-MEL-28 melanoma) | TGI (SK-MEL-28 melanoma) | GI50 (SW-620 colon) | TGI (SW-620 colon) | GI50 (T-47D breast) | TGI (T-47D breast) | GI50 (UO-31 renal) | TGI (UO-31 renal) |
| --- | --- | --- | --- | --- | --- | --- | --- | --- | --- | --- | --- | --- | --- | --- | --- | --- | --- | --- | --- | --- |
| N#Cc1cc(S(=O)(=O)Nc2nc3ccccc3s2)c(SCc2ccccc2)cc1Cl | 24.4 µM | 58.6 µM | 17.7 µM | 36.3 µM | 51.5 µM | > 100 µM | 23.6 µM | 55.8 µM | 11.3 µM | 32.3 µM | 20.6 µM | 45.4 µM | 28.8 µM | 87.8 µM | 19.8 µM | 43.7 µM | 22.8 µM | 73.7 µM | 17.8 µM | 42.1 µM |
| COc1ccc(Nc2cc(C)nc(N3CCN(c4ccnc5cc(Cl)ccc45)CC3)n2)cc1 | 6.57 µM | > 100 µM | 3.24 µM | 11.6 µM | 3.12 µM | 12.8 µM | 2.83 µM | 8.11 µM | 2.02 µM | 5.27 µM | 2.79 µM | 21 µM |  |  | 2.73 µM | 13.2 µM | 1.99 µM | 6.59 µM | 2.24 µM | > 100 µM |
| C=C1c2c(Cl)ccc(O)c2C(O)=C2C(=O)[C@]3(O)C(O)=C(C(N)=O)C(=O)[C@@H](N(C)C)[C@@H]3[C@@H](O)[C@H]12 | 1.62 µM | 9.15 µM | 1.32 µM | 5.61 µM | 1.22 µM | 3.57 µM | 1.55 µM | 6.18 µM | 1.01 µM | 3.06 µM | 0.534 µM | 2.82 µM | 1.08 µM | 4.45 µM | 1.5 µM | > 50 µM | 1.07 µM | 4.06 µM | 1.19 µM | 6.22 µM |
| [Cl][Cd][Cl] | 24 µM | 63.6 µM | 23.6 µM and 79 µM | > 63.5 µM and 158 µM | 39.4 µM and 18.6 µM | > 84.5 µM and 118 µM | 45.4 µM | 130 µM | 0.32 µM and 1.39 µM and 0.349 µM | 3.65 µM and 1.55 µM | 50.1 µM and 13.6 µM | 41.2 µM | 17.9 µM and 11.6 µM | 34.6 µM and 30.4 µM | 19.5 µM and 17.2 µM | 37.1 µM and 76.7 µM | 9.63 µM | 19.5 µM | > 74 µM and 74.5 µM | 131 µM |
| Oc1ccc(Cl)cc1CNc1nc2ccccc2[nH]1 | 16.2 µM | 32.4 µM | 16.5 µM | 32 µM | 19.8 µM | > 100 µM | 17.2 µM | 35.5 µM | 11.9 µM | 27.7 µM | 10.3 µM | 23.9 µM | 13.6 µM | 27.9 µM | 15.5 µM | 31.9 µM | 13.3 µM | 47.9 µM | 4.73 µM | 19.1 µM |
| C/C=C(\C)C(=O)N[C@H]1C(O)C[C@]2(C)C3CC[C@@]4(C)C(CC[C@@H]4C(C)N(C)C)C3CCC2C1O (stereo partly drawn) | 12.6 µM | > 83.3 µM | 4.16 µM | 9.21 µM | 4.44 µM | 16.9 µM | 1.4 µM | 5.18 µM | 11.2 µM | > 43.7 µM | 7.53 µM | 23.2 µM | 2.04 µM | 3.83 µM | 2.31 µM | 6.06 µM | 2.91 µM | 17.7 µM | 2.03 µM | 5.73 µM |
| O=C1OC(c2ccccc2)=N/C1=C\c1cccc(F)c1 |  | > 100 µM |  | > 100 µM |  | 61.2 µM |  | > 100 µM |  | 40.1 µM |  | > 100 µM |  | > 100 µM |  | > 100 µM |  | > 100 µM |  | > 100 µM |
